3 compounds from patent publication US11219221B2 (FarmHannong Co., Ltd., priority 2017, dated 2022) can be followed below.

Holding throughout (assay type): cell-based
What all share (conditions): LB agar, 37° C., light, 16 to 20 hours

The test system of assay [1] is CyPPO16 (SEQ ID NO: 1) variant A162C in PPO-deficient E. coli BT3(ΔPPO). As to the method:
(§1) The mutated CyPPO gene obtained from the Example 2 was transformed to BT3 (ΔPPO) strain which is deficient of PPO activity and cultured in LB media with PPO-inhibiting herbicide, thereby examining whether growth of transformed BT3 was not inhibited.
(§2) BT3 competent cells were transformed with the pET303-CyPPO16 and pET303-CyPPO17 plasmids and those with a mutation(s) constructed in Example 2 respectively, and were cultured in LB agar media containing carbenicillin (Gold Biotechnology, Co., Ltd.).
(§3) Single colony of E. coli transformed with each CyPPO gene was cultured in 3 ml of LB broth containing carbenicillin overnight, and then was subcultured until absorbance (0D600) reached 0.5 to 1. Then, it was diluted with LB broth to OD600=0.5. Again, the diluted solution was serially diluted 4 times by a factor of one tenth.
(§4) The LB agar media (LB 25 g/l, Bacto agar 15 g/l) containing carbenicillin (100 μg/ml) and 0 to 4,000 μM of various herbicides dissolved in DMSO was prepared. Next, 10 μl of each diluted solution was dropped on the plate and cultured at 37° C. under light (Tables 7 and 9, FIGS. 2 to 6, and 18 to 22) or dark (Tables 8 and 10, FIGS. 7 to 17, and 23 to 33) for 16 to 20 hours. Then, extent of tolerance was evaluated.
(§5) The extent of herbicide tolerance of the mutated genes was evaluated by comparing that of mutated genes with that of wild type. The relative tolerance was represented with “+” as a factor of 10 times.
(§6) In Tables 7 to 10, tolerance level was presented as of tolerance of wild type and of variants equivalent to that of wild type, and was done as ‘+’ per each 10 fold resistance until ‘+++++’ as maximal resistance.

Assay [2] has as its system CyPPO17 (SEQ ID NO: 3) variant F359M in PPO-deficient E. coli BT3(ΔPPO). The procedure: as §1, §2, §3, §4, §5, §6
For assay [3], the system named is CyPPO17 (SEQ ID NO: 3) variant A166L in PPO-deficient E. coli BT3(ΔPPO). The procedure:
as §1, §2, §3, §4, §5, §6

The test system of assay [4] is CyPPO16 (SEQ ID NO: 1) variant F360C in PPO-deficient E. coli BT3(ΔPPO). The procedure:
as §1, §2, §3, §4, §5, §6

Assay [5] relates to CyPPO16 (SEQ ID NO: 1) variant F360M in PPO-deficient E. coli BT3(ΔPPO). The procedure: as §1, §2, §3, §4, §5, §6
Assay [6] deals with CyPPO17 (SEQ ID NO: 3) variant A166C in PPO-deficient E. coli BT3(ΔPPO). As to the method:
as §1, §2, §3, §4, §5, §6

In assay [7] the test system is CyPPO17 (SEQ ID NO: 3) variant V304M in PPO-deficient E. coli BT3(ΔPPO). The procedure: as §1, §2, §3, §4, §5, §6
For assay [8], the system named is CyPPO17 (SEQ ID NO: 3) variant F359I in PPO-deficient E. coli BT3(ΔPPO). As to the method: as §1, §2, §3, §4, §5, §6
For assay [9], the system named is CyPPO16 (SEQ ID NO: 1) variant F360L in PPO-deficient E. coli BT3(ΔPPO). The procedure:
as §1, §2, §3, §4, §5, §6

In assay [10] the test system is CyPPO16 (SEQ ID NO: 1) variant V305M in PPO-deficient E. coli BT3(ΔPPO). The procedure:
as §1, §2, §3, §4, §5, §6

Assay [11] deals with CyPPO17 (SEQ ID NO: 3) variant F359C in PPO-deficient E. coli BT3(ΔPPO). As to the method: as §1, §2, §3, §4, §5, §6
Assay [12] deals with CyPPO17 (SEQ ID NO: 3) variant F359L in PPO-deficient E. coli BT3(ΔPPO). The procedure:
as §1, §2, §3, §4, §5, §6

The test system of assay [13] is CyPPO16 (SEQ ID NO: 1) variant F360V in PPO-deficient E. coli BT3(ΔPPO). As to the method: as §1, §2, §3, §4, §5, §6
Assay [14] concerns CyPPO16 (SEQ ID NO: 1) variant F360I in PPO-deficient E. coli BT3(ΔPPO). As to the method: as §1, §2, §3, §4, §5, §6
The subject of assay [15] is CyPPO16 (SEQ ID NO: 1) variant A162L in PPO-deficient E. coli BT3(ΔPPO). As to the method:
as §1, §2, §3, §4, §5, §6

The subject of assay [16] is CyPPO17 wild type (SEQ ID NO: 3) in PPO-deficient E. coli BT3(ΔPPO). As to the method: as §1, §2, §3, §4
(§7) The extent of herbicide tolerance of the mutated genes was evaluated by comparing that of mutated genes with that of wild type. The relative tolerance was represented with “+” as a factor of 10 times. Evaluation result was listed in Tables 7 to10 and FIGS. 2 to 33:
(§8) In Tables 7 to 10, tolerance level was presented as of tolerance of wild type and of variants equivalent to that of wild type, and was done as ‘+’ per each 10 fold resistance until ‘+++++’ as maximal resistance. (Tolerance level was evaluated by relative growth level of variants to that of wild type in the media containing highest concentration of herbicide; ‘+’=1-9 fold higher tolerance, ‘++’=10-99 fold higher tolerance, ‘+++’=100-999 fold higher tolerance, ‘++++’=1,000-9,999 fold higher tolerance, ‘+++++’=more than 10,000 fold higher tolerance)

Assay [17] deals with CyPPO16 wild type (SEQ ID NO: 1) in PPO-deficient E. coli BT3(ΔPPO). The procedure: as §1, §2, §3, §4, §7, §8

Each structure is given as a SMILES string.

For the compound `CC(C)=C1OC(=O)N(c2cc(OC3CCCC3)c(Cl)cc2F)C1=O` [pentoxazone], the “Herbicide tolerance (relative to wild type)” value in [1] is recorded as “++ (10-99 fold higher tolerance)”; in [2], “++ (10-99 fold higher tolerance)”; in assay [3] it was “++ (10-99 fold higher tolerance)”; in assay [4], “++ (10-99 fold higher tolerance)”; in [5], “+ (1-9 fold higher tolerance)”; in [6], “+ (1-9 fold higher tolerance)”. The “Herbicide tolerance (relative to wild type)” value is “+ (1-9 fold higher tolerance)” in assay [7]; “++ (10-99 fold higher tolerance)” in [8]; “+ (1-9 fold higher tolerance)” in assay [9]; “+ (1-9 fold higher tolerance)” in assay [10]; “+ (1-9 fold higher tolerance)” in [11]; “+ (1-9 fold higher tolerance)” in [12]. Moreover, the “Herbicide tolerance (relative to wild type)” value in assay [13] is given as “+ (1-9 fold higher tolerance)”; in assay [14], “+ (1-9 fold higher tolerance)”; in [15] it was “++ (10-99 fold higher tolerance)”; in assay [16] it was “−”; in [17] it was “−”.
Turning to `C#CCN(C)c1c(C#N)cnn1-c1nn2c(c1Cl)CCCC2` [pyraclonil], the “Herbicide tolerance (relative to wild type)” value was “++ (10-99 fold higher tolerance)” in [1]; “+ (1-9 fold higher tolerance)” in assay [2]; “+ (1-9 fold higher tolerance)” in assay [3]; “++ (10-99 fold higher tolerance)” in assay [4]; “+ (1-9 fold higher tolerance)” in assay [5]; “+ (1-9 fold higher tolerance)” in [8]. Further, the “Herbicide tolerance (relative to wild type)” value in [9], in assay [10], in assay [11], in assay [12], in assay [13] and in assay [14] was “+ (1-9 fold higher tolerance)” throughout. Further, the results for the “Herbicide tolerance (relative to wild type)” value in assay [15], in assay [16] and in [17] were “++ (10-99 fold higher tolerance)”, “−” and “−”, respectively.
Consider `CS(=O)(=O)NC(=O)c1cc(Oc2ccc(C(F)(F)F)cc2Cl)ccc1[N+](=O)[O-]` [fomesafen], for which the “Herbicide tolerance (relative to wild type)” value in [1] is “++ (10-99 fold higher tolerance)”; in [2], “++ (10-99 fold higher tolerance)”; in [3], “++ (10-99 fold higher tolerance)”; in [4], “++ (10-99 fold higher tolerance)”; in [5], “+++ (100-999 fold higher tolerance)”; in assay [6], “+ (1-9 fold higher tolerance)”. The “Herbicide tolerance (relative to wild type)” value was “++ (10-99 fold higher tolerance)” in assay [7]; “+ (1-9 fold higher tolerance)” in assay [8]; “+++ (100-999 fold higher tolerance)” in [9]; “++ (10-99 fold higher tolerance)” in [10]; “+ (1-9 fold higher tolerance)” in [11]; “+ (1-9 fold higher tolerance)” in assay [12]. The “Herbicide tolerance (relative to wild type)” value in assay [13] is “+ (1-9 fold higher tolerance)”; in [14] it was “+ (1-9 fold higher tolerance)”; in assay [15] it was “++ (10-99 fold higher tolerance)”; in assay [16], “−”; in assay [17], “−”.
